In article PMC9149975, “The diaryl-imidazopyridazine anti-plasmodial compound, MMV652103, exhibits anti-breast cancer activity” (EXCLI Journal, 2022):

Columns and labels:
MCF7 cells = test: GSH-Glo Glutathione assay; type: cell-based, human; conditions: MCF7, 24 h; MMV652103 ½ IC50 and IC50, doxorubicin IC50 (9.84 nM)
Method: The increase in ROS levels results in a decrease in the levels of antioxidants. To confirm the presence of intracellular ROS, the levels of the antioxidant, glutathione (GSH), was measured using the GSH-Glo™ Glutathione assay kit (V6911, Promega, Wisconsin, USA), according to the manufacturer's instructions. Briefly, cells (2500-4500 cells per well) were seeded in opaque 96 well plates. Cells were treated for 24 h with either vehicle or MMV652103. Thereafter, the cell culture medium was removed and 100 μl of 1X GSH-Glo™ Reagent (prepared using Luciferin-NT substrate and Glutathione S-Transferase each diluted 1:100 in GSH-Glo™ Reaction Buffer) was added to each well. The plate was then mixed briefly on a shaker and incubated for 10 min at RT. Thereafter, 100 μl reconstituted Luciferin Detection Reagent was added to each well. The plate was then incubated for 15 min RT in order to stabilize the luminescence signal. The plate was read using the GloMax® Explorer Multimode plate reader (Promega, Wisconsin, USA).

MCF7 tumors = test: Chick embryo CAM xenograft: tumor weight and metastasis; type: in vivo; conditions: 25 μM, every 48 h E10-E16, weighed E18
Method: All studies and procedures were conducted with prior approval of the Animal Ethics Committee of the University of Cape Town (FHS AEC REF NO:016/025) in accordance with the South African National Standard (SANS 10386:008) for the Care and Use of Animals for Scientific Purposes (SABS, 2015[71]), and guidelines from the Department of Health (2015[21]). Fertilized White Leghorn eggs were incubated at 37.5 °C with 50 % relative humidity for 9 days. At stage E9, the chorioallantoic membrane (CAM) was dropped by drilling a small hole through the eggshell into the air sac and a 1 cm^2 window was cut in the eggshell above the CAM. Cultured MCF7 cells were detached with trypsin, washed with complete medium and suspended in PBS. An inoculum of MCF7 cells was grafted onto the CAM of each E9 egg (21 eggs were used for each condition) and at E10, tumors were detectable. MCF7 tumors were treated every 48 h (E10, E12, E14, E16) by dropping 100 μl of vehicle (0.25 % DMSO in PBS), a reference compound (Paclitaxel), or MMV652103, onto the tumour. At E18 the upper portion of the CAM was removed, transferred to PBS and the tumors cut away from normal CAM tissue and weighed. A one-way ANOVA analysis with post-tests was done. In parallel, a 1 cm^2 portion of the lower CAM was collected to evaluate the number of metastatic cells. The relative amount of metastasis was calculated as follows: Tumor cells were grafted onto the upper chorioallantoic membrane (CAM) and during metastasis the cells invade the epithelium and basement membrane of the upper CAM and move through connective tissue into the vasculature into the lower CAM. The cells in the lower CAM are then harvested and genomic DNA is extracted and analyzed by qPCR with specific primers for Alu sequences which are only found in higher primates i.e. it allows for the distinction between human tumor cells and the host chick cells. Statistical analysis was directly performed on data from the Bio-Rad CFX Manager 3.1 software.

SMILES | levels of GSH (MCF7 cells) | tumor weight reduction (MCF7 tumors) [%]
COc1cccc2c1C(=O)c1c(O)c3c(c(O)c1C2=O)C[C@@](O)(C(=O)CO)C[C@@H]3O[C@H]1C[C@H](N)[C@H](O)[C@H](C)O1 [Doxorubicin, reference compound] | significant decrease | –
CC(=O)O[C@H]1C(=O)[C@@]2(C)[C@H]([C@H](OC(=O)c3ccccc3)[C@]3(O)C[C@H](OC(=O)[C@H](O)[C@@H](NC(=O)c4ccccc4)c4ccccc4)C(C)=C1C3(C)C)[C@]1(OC(C)=O)CO[C@@H]1C[C@@H]2O [Paclitaxel, reference compound] | – | 28.22
